Values joined by “and” are separate entries in the source; they are usually repeats but may differ in a detail not shown here. Identical values can stand only once.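 Cells were grown in 96-well plates and exposed to each compound for 48 hours at five concentrations; endpoints were interpolated linearly between bracketing concentrations, or set to the highest concentration if not reached. Abbreviation: GI50, concentration required for 50% inhibition of growth. At the TGI there is no net growth.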
Tested on: MDA-MB-468 breast
Assay: NCI tumour cell line growth inhibition, 48 h

Compound	GI50	TGI
CN(Cc1cccc(F)c1)c1ccc(CO)c(Cl)c1	45.5 nM	0.169 µM
COc1cccc(-c2ccc3c(c2)C2CCN(Cc4ccccc4)C3C2)c1 (stereo not given)	2890 nM	16.1 µM
Oc1ccc(-c2nc3ccc4[nH]ncc4c3c3c2CCCC3)c(F)c1	4060 nM	20.3 µM
Cn1nc(-c2ccc(Cl)cc2)nc2c(=O)n(C)c(=O)nc1-2	1180 nM	3.35 µM
COC1=C(C)C(=O)c2c(c(CCCl)c3n2CCC3O)C1=O (stereo not given)	11100 nM	34.5 µM
N#Cc1c(Br)n(C2OC(CO)C(O)C2O)c2ncnc(N)c12 (stereo not given)	2010 nM	6.12 µM
COc1cccc(/C=N/NC(=S)NC2CC3CCC2C3)c1O (stereo not given)	11400 nM	> 100 µM
Cc1ccc(C(NC(=O)c2ccccc2)c2ccc3cccnc3c2O)cc1 (stereo not given)	219 nM	0.788 µM
FC(F)(F)c1ccc(-c2cnc(-n3cc(COCCN4CCCCC4)nn3)nc2NC2CCCCCC2)cc1	3540 nM	7.37 µM
COc1ccc2c(C3(c4cn(C)c5cc(OC)ccc45)C(=O)Nc4ccc(Cl)cc43)cn(C)c2c1	2540 nM	9.08 µM
CCN(Cc1ccc(F)cc1)c1ccc(CO)c(C)c1	167 nM	0.591 µM
Cc1cc2cc3ccc(N(C)C)cc3nc2cc1N	229 nM	1.26 µM
Cn1ccnc1C(=O)/C=C/c1ccc(CNC(=O)c2ccc(Cl)cc2)cc1	2050 nM	4.75 µM
O=C(CN1CCN(c2cc3c(cc2F)c(=O)c(C(=O)O)cn3C2CC2)CC1)Nc1nc(-c2ccc(Cl)cc2)cs1	3430 nM	30.7 µM
CCOc1cc(Br)c(C(C)NC(=O)c2cccc(OC)c2)cc1OCC (stereo not given)	3460 nM	54.7 µM
C=C(C)C(=O)O[C@H]1C[C@@]2(C)OC(=CC2=O)/C(CO)=C\[C@H]2OC(=O)C(=C)[C@H]12	41.6 nM	0.127 µM
O=C1c2c(c3c4cc(O)ccc4oc3c3[nH]c4ccccc4c23)C(=O)N1O	478 nM	1.55 µM
CCN1C(=O)CCCc2c1ccc(Nc1ncc(Cl)c(NC3[C@@H](C(N)=O)[C@@H]4C=C[C@H]3C4)n1)c2OC (stereo not given in full)	1130 nM	4.8 µM
Brc1ccc2[nH]cc(-c3nc(-c4c[nH]c5ncccc45)cs3)c2c1	2660 nM	10.9 µM
C=C1C(=O)O[C@H]2[C@H]1CC/C(COC(=O)CCSCCC(=O)OC/C1=C/CC[C@@]3(C)O[C@H]3[C@H]3OC(=O)C(=C)[C@@H]3CC1)=C\CC[C@@]1(C)O[C@@H]21	358 nM	1.5 µM
Cc1cc(Nc2nc(-c3cccnc3)nc3ccccc23)n[nH]1	1780 nM	21.4 µM

Compound	GI50	TGI
COc1ccc(-c2ccc(-c3ccc(C(=N)N)nc3)s2)cc1Cl	1740 nM	3.32 µM
CC1=C(CN(O)C(N)=O)C2=C(C)C3(CC3)[C@](C)(O)C(=O)C2=C1	184 nM	0.497 µM
COc1cc(NS(C)(=O)=O)ccc1Nc1c2ccccc2nc2ccccc12	469 nM [middle of 4 runs]	–
CCC(c1ccc(OC)cc1)C(CC)c1ccc(O)c(CN2CCN(C)CC2)c1 (stereo not given)	2500 nM	9.77 µM
COc1ccc(C(c2ccc(OCCN(C)C)cc2)c2cc3ccccc3c3ccccc23)cc1 (stereo not given)	1580 nM	3.15 µM
O=C(O)c1cn(C2CC2)c2cc(N3CCN(C(=O)Nc4nc(-c5ccccc5)cs4)CC3)c(F)cc2c1=O	563 nM	6.52 µM
CCCCCCNC(=O)Oc1ccc(/C(=C(/C)Cc2ccc(OC)cc2)c2ccc(OCCCN(C)C)cc2)cc1	16700 nM	32.6 µM
CCN1C(=O)N(CC)C2SC(N/N=C/c3ccccc3)=NC21 (stereo not given)	293 nM	–
Nc1nc(N)c(C=Nc2ccc(Br)cc2)c(Nc2ccc(Br)cc2)n1	11000 nM	23.3 µM
COc1cccc(-c2nn(-c3ccccc3)cc2-c2ccnc(NCCNC(=O)Nc3cccc(C(F)(F)F)c3)c2)c1	1700 nM	3.43 µM
CC(=O)N1N=C(c2ccc(Nc3ccnc4cc(Cl)ccc34)cc2)CC1c1ccc(Cl)cc1 (stereo not given)	2410 nM	> 100 µM
Cc1ccc(/C=C2\CN(C(=O)C(Cl)Cl)C/C(=C\c3ccc(C)cc3)C2=O)cc1	195 nM	0.427 µM
COc1cc2c(cc1OC)C(Sc1ccc(SC)cc1)c1c(nc(N)c(C#N)c1N)O2 (stereo not given)	1030 nM	2.62 µM
CC1=C(/C=C/C(C)=C/C=C/C(C)=C/C=N/NC(=S)NC(=S)N/N=C/C=C(C)/C=C/C=C(C)/C=C/C2=C(C)CCCC2(C)C)C(C)(C)CCC1	3250 nM and 2840 nM	10.5 µM and 10.2 µM
O=[N+]([O-])c1ccc(Oc2nc(Nc3ccc(O[C@H]4CO[C@H]5[C@@H]4OC[C@@H]5O)c(Cl)c3)ncc2F)c(Cl)c1	1470 nM	4.66 µM
CC1=CC(=O)C(C(C)C)=CC1=Nc1cc(Br)c(O)c(Br)c1	3700 nM	15.5 µM
COc1ccccc1C1=C(Nc2ccccc2)C(=O)NC1=O	> 10300 nM	> 25 µM
COc1ccc(/C=c2\sc3n(c2=O)C2C(NN=3)N(C)C(=O)N2C)cc1 (stereo not given)	231 nM	0.783 µM
NC(=S)n1c(=O)n(-c2cccc(C(F)(F)F)c2)c(=O)c2cc(-c3ccc(F)cc3F)ccc21	2010 nM	5.8 µM
CC(C)N1CCN(Cc2ccc3c(NNC(=O)c4ccccc4)nc4cc(F)ccc4n23)CC1	260 nM	1.4 µM

Source: PubChem BioAssay (NCI)
